molecular target: T1, PD-1/PD-L1 (Homo sapiens, UniProt Q9NZQ7); experiment: PD-1/PD-L1 homogeneous time-resolved fluorescence (HTRF) binding assay; details: Tag 1-PD-L1 / Tag 2-PD-1, Cisbio kit
T1 construct: purchased Cisbio 63ADK000CPDEC
From the text: The PD-1/PD-L1 homogeneous time-resolved fluorescence method is used to detect the binding ability of the compound with PD-L1.
PD-1/PD-L1 binding assay kit (Cisbio, Cat #63ADK000CPDEC) was chosen, which contains two proteins Tag 1-PD-L1 and Tag 2-PD-1, and two antibodies Anti-Tag1-Eu^3+ and Anti-Tag2-XL 665. The principle of detection was: Anti-tag1-Eu^3+ was used as the donor of HTRF, and Anti-Tag2-XL 665 was used as the acceptor of HTRF. When Tag 1-PD-L1 interacts with Tag 2-PD-1, the added HTRF donor and the acceptor are close to each other. After the donor has received the excitation energy, part of the energy was transferred to the acceptor, thus generating 665 nm emission light. […] The inhibitory effect of the compound can be determined by comparing the ratio of 665 nm/620 nm. Tag 1-PD-L1 was diluted with Diluent buffer (cat #62DLBDDF) to a working concentration of 10 nM, Tag 2-PD-1 was diluted with Diluent buffer to a working concentration of 500 nM, Anti-Tag1-Eu^3+ was diluted with detection buffer (cat #62DB1FDG) at a ratio of 1:100, Anti-Tag2-XL 665 was diluted with detection buffer at a ratio of 1:20, and the compound to be detected was diluted with diluent buffer to a final concentration of 2×. Compound (2 μL) was added to each well of a 384-well plate, then Tag 1-PD-L1 (4 μL) and Tag 2-PD-1 (4 μL) were added successively. The mixture was incubated at room temperature for 15 minutes. Then Anti-Tag1-Eu^3+ (5 μL) and Anti-Tag2-XL 665 (5 μL) were added, and the mixture was incubated overnight at room temperature. BioTek Synergy™ Neo2 multifunctional microplate reader was used to detect so as to provide the 665 nm/620 nm ratio. PrismGraphd 5.02 was used to fit the IC50 curve.

T1 sequence (Q9NZQ7 19-238 limits assumed): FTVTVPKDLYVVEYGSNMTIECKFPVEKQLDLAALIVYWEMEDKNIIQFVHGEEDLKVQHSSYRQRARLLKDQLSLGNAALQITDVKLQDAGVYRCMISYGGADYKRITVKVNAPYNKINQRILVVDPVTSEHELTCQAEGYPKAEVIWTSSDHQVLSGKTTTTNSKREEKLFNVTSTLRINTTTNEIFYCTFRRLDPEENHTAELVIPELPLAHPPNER

Compound | IC50 [nM]
OCCNCc1cnc2nn(-c3cccc(-c4ccccc4)c3Cl)cc2c1 [Compound 1, 2-(((2-(2-Chloro-[1,1′-biphenyl]-3-yl)-2H-pyrazolo[3,4-b]pyridin-5-yl)methyl)amino) ethane-1-ol] | 100 to 1000
COc1nc(CN2CCCC[C@H]2C(=O)O)nc2c1CN(c1cccc(-c3ccccc3)c1Cl)C2 [Compound 6, (S)-1-((6-(2-Chloro-[1,1′-biphenyl]-3-yl)-4-methoxy-6,7-dihydro-5H-pyrrolo[3,4-d)pyrimidin-2-yl)methyl)piperidine-2-carboxylic acid] | < 100
COc1cc(CNCCO)cc2c1CN(c1cccc(-c3ccccc3)c1Cl)C2 [Compound 10, 2-(((2-(2-Chloro-[1,1′-biphenyl]-3-yl)-7-methoxyisoindolin-5-yl)methyl)amino)ethane-1-ol] | < 100

Further lines, results first:

IC50 [nM] | Compound
< 100 | COc1nc(CNCCO)nc2c1CN(c1cccc(-c3ccccc3)c1Cl)C2 [Compound 5, 2-(((6-(2-Chloro-[1,1′-biphenyl]-3-yl)-4-methoxy-6,7-dihydro-5H-pyrrolo[3,4-d)pyrimidin-2-yl)methyl)amino)ethane-1-ol]
100 to 1000 | Cc1c(-c2ccccc2)cccc1-n1cc2cc(CNCCO)cc(C#N)c2n1 [Compound 9, (((2-Hydroxyethyl)amino)methyl)-2-(2-methyl-[1,1′-biphenyl]-3-yl)-2H-indazole-7-carbonitrile]

— US20220056023A1, “PREPARATION AND APPLICATION OF CLASS OF N-CONTAINING HETEROCYCLIC COMPOUNDS HAVING IMMUNOREGULATORY FUNCTION” (SHANGHAI ENNOVABIO PHARMACEUTICALS CO., LTD., priority 2018, published 2022)
